# Measured values published in paper PMC6934184, “Selective DNA-PKcs inhibition extends the therapeutic index of localized radiotherapy and chemotherapy” (The Journal of Clinical Investigation, 2019).
# Biological target: T1, STK32B (YANK2) (Homo sapiens, UniProt Q9NY57)
# T1 construct: purchased Thermo Fisher Scientific (Life Technologies) SelectScreen
# Experiment: SelectScreen LanthaScreen
# Assay type: binding
# Conditions: read-out: % displacement
# Method in brief: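 SelectScreen broad panel; activity (Z'LYTE, Adapta) plus binding formats. ATP: Km app for CSF1R Z'LYTE; 10 for CAMK1 Adapta. Readout = % per kinase.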
# T1 sequence (Q9NY57 whole entry): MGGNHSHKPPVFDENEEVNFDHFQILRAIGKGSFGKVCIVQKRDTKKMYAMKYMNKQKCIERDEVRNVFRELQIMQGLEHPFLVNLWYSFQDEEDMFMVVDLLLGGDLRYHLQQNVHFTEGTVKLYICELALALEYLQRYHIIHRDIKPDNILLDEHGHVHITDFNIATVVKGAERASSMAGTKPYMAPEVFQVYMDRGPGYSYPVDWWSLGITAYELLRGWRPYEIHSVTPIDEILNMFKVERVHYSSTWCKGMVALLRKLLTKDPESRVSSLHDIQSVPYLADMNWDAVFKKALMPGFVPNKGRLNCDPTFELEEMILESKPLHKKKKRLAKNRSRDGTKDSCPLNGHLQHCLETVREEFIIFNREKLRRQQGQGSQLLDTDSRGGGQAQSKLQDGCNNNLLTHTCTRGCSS
smiles,measurement,value
CN(C(=O)CN1CCOCC1)c1ccc2sc3c(-c4cccc5c(=O)cc(N6CC7CCC(C6)O7)oc45)cccc3c2c1 [NU5455],inhibition at 1 µM,-1.4%
